Our source for the Therapeutic index, CC50 and MIC values is ChEMBL document CHEMBL1136564, “Sordaricin antifungal agents” (2003).

The nature of assay [1]: In vitro therapeutic index (calculated as CC50/MIC (Candida albicans)). The format is functional.
Assay [2] has as its system HEp-2. As to the kind of experiment: In vitro cytotoxic concentration against Hep2 cells. The format is functional. As to conditions: Homo sapiens.
The subject of assay [3] is Candida albicans. As to the kind of experiment: Minimum inhibitory concentration to inhibit 90 to 100% visible growth of Candida albicans. The format is functional.
The subject of assay [4] is Nakaseomyces glabratus. As to the kind of experiment: Minimum inhibitory concentration required to inhibit 90 to 100% visible growth of Candida glabrata. The format is functional.
Assay [5] concerns HEp-2. As to the kind of experiment: Cytotoxic concentration against Hep2 cells; activation observed, but IC50 could not be determined. The format is functional, cell-based. Particulars: Homo sapiens.

In brackets after ≈: the same amount, converted by molar mass. Activity calls are given as the source filed them. No cut-off for these calls is given here.

By CC50 is commonly meant the concentration that lowers cell viability or growth by half. As a reminder, the MIC is the least concentration at which growth counts as inhibited. Turning to `CC(C)CCC(=O)C12C[C@@H]3[C@H](C)CC[C@H]3C3(C=O)CC1C=C(C(C)C)[C@@]23C(=O)O`, the Therapeutic index in assay [1] is < 0.02. The molecule also had a CC50 in assay [2] of 2.5 µg/mL (≈ 6.24 µM). Moreover, the MIC in assay [3] was > 128 µg/mL; in assay [4], 1 µg/mL (≈ 2.5 µM).
The corresponding values for `CCCCCCC(=O)C12C[C@@H]3[C@H](C)CC[C@H]3C3(C=O)CC1C=C(C(C)C)[C@@]23C(=O)O` are 6, 1.5 µg/mL (≈ 3.62 µM), 0.25 µg/mL (≈ 0.603 µM) and 4 µg/mL (≈ 9.65 µM).
For the molecule `CCCCCCC(O)C12C[C@@H]3[C@H](C)CC[C@H]3C3(C=O)CC1C=C(C(C)C)[C@@]23C(=O)O` (stereo not given in full), the Therapeutic index in assay [1] was 0.6. This molecule registered a CC50 in assay [2] of 2.4 µg/mL (≈ 5.76 µM). For the same molecule, the MIC in assay [3] is 4 µg/mL (≈ 9.6 µM); in assay [4] it was 32 µg/mL (≈ 76.8 µM).
Take `CC(C)C1=CC2CC3(C=O)[C@@H]4CC[C@@H](C)[C@H]4CC2(C(=O)CC2CCCCC2)[C@]13C(=O)O`: the Therapeutic index in assay [1] was 3.6. Besides, in assay [2], half-maximal cytotoxicity (CC50) was put at 1.8 µg/mL (≈ 4.22 µM). In addition, the MIC in assay [3] was determined as 0.5 µg/mL (≈ 1.17 µM); in assay [4] it was 1 µg/mL (≈ 2.34 µM).
The corresponding values for `CCCCC#CC(=O)C12C[C@@H]3[C@H](C)CC[C@H]3C3(C=O)CC1C=C(C(C)C)[C@@]23C(=O)O` are > 55, 3.3 µg/mL (≈ 8.04 µM), < 0.06 µg/mL and 0.5 µg/mL (≈ 1.22 µM).
Taken in the same sequence, the figures for `CC(C)C1=CC2CC3(C=O)[C@@H]4CC[C@@H](C)[C@H]4CC2(C(O)C#CCC2CCCCC2)[C@]13C(=O)O` (stereo not given in full) were 42.8, 10.7 µg/mL (≈ 23.6 µM), 0.25 µg/mL (≈ 0.552 µM) and 4 µg/mL (≈ 8.84 µM).
The corresponding values for `CC(C)C1=CC2CC3(C=O)[C@@H]4CC[C@@H](C)[C@H]4CC2(C(=O)C#CCC2CCCC2)[C@]13C(=O)O` are > 15, 0.9 µg/mL (≈ 2.06 µM), < 0.06 µg/mL and 0.125 µg/mL (≈ 0.286 µM).
On to `CC(C)CCC(O)C12C[C@@H]3[C@H](C)CC[C@H]3C3(C=O)CC1C=C(C(C)C)[C@@]23C(=O)O` (stereo not given in full), for which the MIC is 16 µg/mL (≈ 39.7 µM) in assay [3] and 64 µg/mL (≈ 159 µM) in assay [4]. Further, in assay [5], the CC50 entry is “inactive”.
For the molecule `CC(C)CCCCC(O)C12C[C@@H]3[C@H](C)CC[C@H]3C3(C=O)CC1C=C(C(C)C)[C@@]23C(=O)O` (stereo not given in full), in assay [1], the Therapeutic index is 1.2. In assay [2], this molecule had a CC50 of 1.2 µg/mL (≈ 2.79 µM). Also, the MIC in assay [3] was found to be 1 µg/mL (≈ 2.32 µM); in assay [4] it was 32 µg/mL (≈ 74.3 µM).
Take `CC(C)C1=CC2CC3(C=O)[C@@H]4CC[C@@H](C)[C@H]4CC2(C(=O)C#Cc2ccccc2)[C@]13C(=O)O`: in assay [1], the Therapeutic index is 0.09. For the same molecule, the CC50 in assay [2] was > 12 µg/mL. The MIC in assay [3] was > 128 µg/mL; in assay [4], 16 µg/mL (≈ 37.2 µM).
In the case of `CC(C)C1=CC2CC3(C=O)[C@@H]4CC[C@@H](C)[C@H]4CC2(C(O)CCC2CCCCC2)[C@]13C(=O)O` (stereo not given in full), the Therapeutic index in assay [1] is 3. This molecule returned a CC50 in assay [2] of 1.5 µg/mL (≈ 3.39 µM). For the same molecule, the MIC in assay [3] is 0.5 µg/mL (≈ 1.13 µM); in assay [4], 16 µg/mL (≈ 36.1 µM).
Take `CC(C)CCCC#CC(=O)C12C[C@@H]3[C@H](C)CC[C@H]3C3(C=O)CC1C=C(C(C)C)[C@@]23C(=O)O`: the Therapeutic index in assay [1] was > 23.3. For the same molecule, the midpoint of cytotoxicity in assay [2], the CC50, lay at 1.4 µg/mL (≈ 3.19 µM). Besides, the results for the MIC in assay [3] and in assay [4] were < 0.06 µg/mL and 0.25 µg/mL (≈ 0.57 µM), respectively.
On to `CC(C)C1=CC2CC3(C=O)[C@@H]4CC[C@@H](C)[C@H]4CC2(C(=O)C#CCC2CCCCC2)[C@]13C(=O)O`, for which the Therapeutic index in assay [1] was > 23.3. Besides, half-maximal cytotoxicity in assay [2] (CC50) was put at 1.4 µg/mL (≈ 3.11 µM). The MIC is < 0.06 µg/mL in assay [3] and 0.5 µg/mL (≈ 1.11 µM) in assay [4].
Taken in the same sequence, the figures for `CC(C)C1=CC2CC3(C=O)[C@@H]4CC[C@@H](C)[C@H]4CC2(C(O)C#CCC2CCCC2)[C@]13C(=O)O` (stereo not given in full) were 14.2, 14.2 µg/mL (≈ 32.4 µM), 1 µg/mL (≈ 2.28 µM) and 16 µg/mL (≈ 36.5 µM).
On to `CC(C)C1=CC2CC3(C=O)[C@@H]4CC[C@@H](C)[C@H]4CC2(C(O)CC2CCCCC2)[C@]13C(=O)O` (stereo not given in full), for which the Therapeutic index in assay [1] was 1.6. In assay [2], this molecule had a CC50 of 3.1 µg/mL (≈ 7.23 µM). Further, the results for the MIC in assay [3] and in assay [4] were 2 µg/mL (≈ 4.67 µM) and 8 µg/mL (≈ 18.7 µM), respectively.
Taken in the same sequence, the figures for `CC(C)C1=CC2CC3(C=O)[C@@H]4CC[C@@H](C)[C@H]4CC2(C(=O)CCC2CCCCC2)[C@]13C(=O)O` were 3.6, 1.8 µg/mL (≈ 4.09 µM), 0.5 µg/mL (≈ 1.13 µM) and > 128 µg/mL.
As for `CCCOc1ccc(C(=O)OCCC23CC4C(CC[C@H]4C)C4(C=O)CC2C=C(C(C)C)C43C(=O)O)cc1` (stereo not given in full), the MIC was 128 µg/mL (≈ 252 µM) in assay [3] and > 128 µg/mL in assay [4].
For the molecule `CCCCC#CC(O)C12C[C@@H]3[C@H](C)CC[C@H]3C3(C=O)CC1C=C(C(C)C)[C@@]23C(=O)O` (stereo not given in full), the Therapeutic index in assay [1] is 2.3. For the same molecule, in assay [2], the CC50 was 18.3 µg/mL (≈ 44.4 µM). In addition, the MIC in assay [3] came out at 8 µg/mL (≈ 19.4 µM); in assay [4], 32 µg/mL (≈ 77.6 µM).
For the molecule `CC(C)C1=CC2CC3(C=O)C4CC[C@@H](C)C4CC2(CCOC(=O)c2ccc(I)cc2)C13C(=O)O` (stereo not given in full), the figures for the MIC in assay [3] and in assay [4] were 2 µg/mL (≈ 3.47 µM) and > 128 µg/mL, respectively.
Taken in the same sequence, the figures for `CC(C)C1=CC2CC3(C=O)C4CC[C@@H](C)C4CC2(CCOC(=O)CCc2c[nH]c4ccccc24)C13C(=O)O` (stereo not given in full) were > 128 µg/mL and > 128 µg/mL.
In the case of `CC(C)CCC#CC(O)C12C[C@@H]3[C@H](C)CC[C@H]3C3(C=O)CC1C=C(C(C)C)[C@@]23C(=O)O` (stereo not given in full), the Therapeutic index in assay [1] was 15.8. In addition, half-maximal cytotoxicity in assay [2] (CC50) was put at 15.8 µg/mL (≈ 37 µM). For the same molecule, the values for the MIC in assay [3] and in assay [4] were 1 µg/mL (≈ 2.34 µM) and 8 µg/mL (≈ 18.8 µM), respectively.
Take `CC(C)C1=CC2CC3(C=O)C4CC[C@@H](C)C4CC2(CCOC(=O)c2cccnc2)C13C(=O)O` (stereo not given in full): the results for the MIC in assay [3] and in assay [4] were 16 µg/mL (≈ 35.4 µM) and > 128 µg/mL, respectively.
Consider `CC(C)CCCCC(=O)C12C[C@@H]3[C@H](C)CC[C@H]3C3(C=O)CC1C=C(C(C)C)[C@@]23C(=O)O`, for which the Therapeutic index in assay [1] was 5. The molecule further came in with a CC50 in assay [2] of 2.5 µg/mL (≈ 5.83 µM). Also, the MIC in assay [3] is 0.5 µg/mL (≈ 1.17 µM); in assay [4], > 128 µg/mL.
For the molecule `CC(C)C1=CC2CC3(C=O)C4CC[C@@H](C)C4CC2(CCOC(=O)c2cnc(O)nc2O)C13C(=O)O` (stereo not given in full), the MIC in assay [3] and in assay [4] was > 128 µg/mL each time.
